# Source: patent US20220016200A1, “PHARMACEUTICAL COMPOSITION FOR THE TREATMENT OF CYSTIC FIBROSIS” (GALENUS G.H. AG, priority 2018, published 2022)
# Like-named read-outs stand apart in the source and are kept apart here. Bridge positions count the residues as written; N and C are the ends. Square brackets hold non-standard residues; d marks the D form. Peptide text beside a SMILES is read from it. * marks the point of attachment. Heptanoyl(5-Me) = CCC(C)CCCC(=O)*; Dab = NCC[C@H](N)C(=O)O
# Assays:
# [1] = test system: A. nosocomialis strain (1204194 IHMA); experiment: Colistin MIC of the susceptible strain used in the mouse model; type: cell-based; settings: Acinetobacter nosocomialis; colistin susceptible A. nosocomialis strain 1204194 IHMA
# Procedure: (§1) One colistin susceptible (MIC 1 mg/L) A. nosocomialis strain (1204194 IHMA) and one colistin resistant (MIC 4 mg/L) A. nosocomialis strain (1461911 IHMA) are used. […] Fresh brain heart infusion broth (Merck, Darmstadt, Germany) bacterial cultures, in an aerobic atmosphere in the logarithmic growth phase (4-5 hours) at 37° C., are adjusted to a concentration of 1.0×10^6 colony forming units (CFU)/mL, as verified by both spectrophotometry (OD600 0.01-0.02 nm) and colony counting.
# [2] = test system: A. nosocomialis strain (1461911 IHMA); experiment: Pneumonic mouse model, colistin resistant strain; type: in vivo, Acinetobacter nosocomialis; settings: BALB/c mice, 3 per group, one intramuscular dose 24 hours after inoculation, combination groups stated together for both strains (6 mice)
# Procedure: as §1
# (§2) A pneumonic mouse model was used. 8- to 12-week-old, specific-pathogen free, male or female BALB/c mice, with 25-35 g in weight, are used for the study Animals have free access to food and water except during experimental procedures. All studies are performed in accordance with the ethical guidelines for the care and use of laboratory animals, and the protocol is approved by an independent ethical commission.
# (§3) For inoculation, fresh inocula are prepared for each experiment from frozen stocks of the two A. nosocomialis isolates (1204194 and 1461911 IHMA). Broth cultures of freshly plated A. nosocomialis bacteria are grown to logarithmic phase overnight to an absorbance of 0.3 at 630 nm and diluted to 10^7 CFU/ml in saline. Mice are anesthetized by intraperitoneal (i.p.) injection of 12.5 mg/kg (5 μl) xylazine and 80 mg/kg (25 μl) ketamine and then inoculated intranasally with 0.05 ml of this bacterial suspension. […]
# [3] = test system: A. nosocomialis strain (1204194 IHMA); experiment: Pneumonic mouse model, colistin susceptible strain; type: in vivo, Acinetobacter nosocomialis
# Procedure: as §1, §2, §3
# [4] = test system: A. guillouiae 1285286; experiment: Checkerboard fusidic acid (FD) and colistin sulfate (CS), MIC/FIC and MBC/FBC; type: cell-based, Acinetobacter guillouiae
# Procedure: Checkerboard assays between fusidic acid (FD) and colistin sulfate (CS) with a bacterial load 5(1-10)*10^5 CFU/ml in cationic adapted Mueller Hinton broth (CAMHB). • a. Antimicrobial stock solutions were prepared using sterile distilled water; • b. CS was added along the ordinate; FD was added along the abscissa to 96 well, flat bottom, polystyrene panels with no treatment. Colistin alone was tested in triplicates; • c. Serial 2-fold dilutions starting with 640 […] CS and 640 μg/ml FD were made; 15 μl volume of the serial dilutions were added for each agent to the appropriate wells—final volume at 30 μl; • d. For each agent tested alone an additional 15 μl media was added to the well. 30 μl were added in control wells where none of the agent was tested. The negative control well contains 150 μl media without any additions; • e. From an overnight bacterial culture in tryptic soy broth, 100 μL was added to 10 mL of fresh tryptic soy broth. This was then incubated at 37° C. for 1.5 hour at 180 rpm; • f. Bacteria in 120 μl CAMHB were added to each well (end concentration 5(1-10)*10^5 CFU/ml); • g. Plates were incubated at 37° C. in an ambient air incubator for 24 h • h. Turbidity at OD600 is determined with a plate photometer • i. By using a one-time inoculator 3 μl from each well of the 96-well plate were transferred to three blood agar plates. The plates were incubated over night at 37° C. in an ambient air incubator; • j. MIC values are defined as lowest concentration which restricts bacterial growth to OD600≤0.1; • k. MBC values were determined by visual reading the lowest concentration which inhibits 99.9% of the growth of bacteria in the wells; • l. Determination of the fractional inhibitory concentration (FIC) index and fractional bactericidal concentration (FBC) index and characterization of antimicrobial interactions was assessed;
# FIC calculation was carried out as: (MIC of drug A, tested in combination)/(MIC of drug A, tested alone)+(MIC of drug B, tested in combination)/(MIC of drug B, tested alone). FBC calculation was carried out just as well;
# Interactive categories were calculated from checkerboard analysis using MIC results from testing each agent alone and MIC results from the combination wells adjacent to the wells with growth in them.
# Determination of the fractional inhibitory concentration (FIC) index and fractional bactericidal concentration (FBC) index and characterization of antimicrobial interactions was assessed:
# (ii) Indifference; FIC/FBC>0.5 to <4.0
# (iii) Antagonism; FIC/FBC≥4.0
# d. Acinetobacter guillouiae 1285286 (IHMA), colistin resistant (2xCS 2/4)
compound,measurement,setting,value
"CCC(C)CCCC(=O)N[C@@H](CCN)C(=O)N[C@H](C(=O)N[C@@H](CCN)C(=O)N[C@H]1CCNC(=O)[C@H]([C@@H](C)O)NC(=O)[C@H](CCN)NC(=O)[C@H](CCN)NC(=O)[C@H](CC(C)C)NC(=O)[C@@H](CC(C)C)NC(=O)[C@H](CCN)NC1=O)[C@@H](C)O (stereo partly drawn) [CS, colistin sulphate] ({Heptanoyl(5-Me)}-[Dab]T[Dab][Dab][Dab][dL]L[Dab][Dab]T; lactam 4-C)",MIC,[1],1 µg/mL
same,mice that survive until day 3,[2],0/3
same,mice that survive until day 3,"[3]; BALB/c mice, 3 per group, colistin susceptible strain, one intramuscular dose 24 hours after inoculation, combination groups stated together for both strains (6 mice)",2/3
same,numbers of A. nosocomialis in the lung tissue,"[3]; day 3, confirmed by qRT-PCR, two surviving monotherapy mice compared with all mice treated with colistin sulphate and teicoplanin or colistin sulphate and fusidic acid",significantly higher numbers
same,MIC,"[4]; A. guillouiae 1285286, agent alone, CAMHB, 1*10^6 CFU/ml, 24 h",2 mg/1l
same,MBC,"[4]; Acinetobacter guillouiae, 1285286, A. guillouiae, agent alone, CAMHB, 1*10^6 CFU/ml, read-out: MBC",4 µg/mL
same,MBC,"[4]; organism list of Example 3, Acinetobacter guillouiae 1285286, 2x, read-out: Colistin CS MBC",4 µg/mL
same,MIC,"[4]; organism list of Example 3, Acinetobacter guillouiae 1285286, 2x, read-out: Colistin CS MIC",2 µg/mL
